GI50 and TGI data for 19 molecules are collected here from PubChem BioAssay (NCI).

What all share (assay): DTP human tumour cell line panel, 48 h
The test system of assay [1] is A549 NSCLC.
The test system of assay [2] is CAKI-1 renal.
Assay [3] deals with CCRF-CEM leukemia.
The test system of assay [4] is MOLT-4 leukemia.
Assay [5] has as its system RPMI-8226 leukemia.
The test system of assay [6] is SF-268 CNS.
Assay [7] concerns SK-MEL-28 melanoma.
Assay [8] has as its system SK-MEL-5 melanoma.
Assay [9] deals with SNB-19 CNS.
Assay [10] relates to SW-620 colon.

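48-hour exposure; five concentrations; linearly interpolated endpoints. Here, GI50 denotes the concentration required for 50% inhibition of growth. TGI is the concentration that stops growth completely.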 A value given as a limit tells only on which side of the number the result lay.

The GI50 is the concentration that inhibits growth by half. The term TGI denotes the concentration at which net growth stops. Turning to `CCN(Cc1ccc(F)cc1F)c1ccc(CO)c(Cl)c1`, the GI50 in [1] is 1.85 µM; in assay [2] it was 5.11 µM; in assay [3], 23.9 µM; in assay [4], 19.7 µM; in assay [5], 2.96 µM; in assay [6], 22.7 µM. The GI50 in assay [7] was 14.1 µM; in [8] it was 5.75 µM; in assay [9], 19.9 µM; in assay [10] it was 0.917 µM. Also, the TGI is 21.2 µM in assay [1]; greater than 54.1 µM in [2]; greater than 88.5 µM in [3]; greater than 71.5 µM in assay [4]; 32 µM in assay [5]; greater than 66.9 µM in assay [6]. Further, the TGI in assay [7] is 27.7 µM; in assay [8], 20.5 µM; in assay [9], 68.8 µM; in assay [10], greater than 45.6 µM.
As to `O=C1C2c3[nH]c4ccccc4c3C3CCSCC3C2C(=O)N1c1ccccc1` (stereo not given), the TGI in [1], in assay [2], in [3], in [4], in assay [5] and in assay [6] was greater than 100 µM in each case. Besides, the total growth inhibition concentration (TGI) in assay [7], in [8], in assay [9] and in assay [10] was greater than 100 µM throughout.
As to `Cc1cc(Cl)ccc1NC(=O)/C(Cc1nc2ccc(C(=O)c3ccccc3)cc2[nH]c1=O)=N/NC(=O)c1ccncc1`, the TGI in assay [1], in [2], in assay [3], in assay [4], in assay [5] and in assay [6] was greater than 100 µM throughout. The TGI in assay [7], in [8], in [9] and in assay [10] was greater than 100 µM throughout.
For `O=C1CC2(CCCc3sccc32)C(=O)N1` (stereo not given), the TGI in [1], in assay [2], in [3], in assay [4], in assay [5] and in assay [6] was greater than 100 µM throughout. Besides, the total growth inhibition concentration (TGI) in assay [7], in [8], in assay [9] and in [10] was greater than 100 µM each time.
Consider `O=C(O)C1CCCN1Cc1c[nH]c2ccccc12` (stereo not given), for which the total growth inhibition concentration (TGI) in assay [1], in assay [2], in assay [3], in [4], in assay [5] and in assay [6] was greater than 100 µM throughout. Also, the TGI in assay [7], in assay [8], in [9] and in assay [10] was greater than 100 µM in each case.
On to `CC(C)(C)c1ccc(Oc2ccc(C#N)c(C#N)c2)c(C(C)(C)C)c1`, for which the TGI in assay [1] is greater than 100 µM; in assay [2], greater than 100 µM; in assay [3], greater than 66.2 µM; in [4] it was 52.9 µM; in [5], 43.1 µM; in assay [6], greater than 100 µM. In addition, the TGI in assay [7], in assay [8], in assay [9] and in assay [10] was greater than 100 µM throughout.
Take `O=P(Oc1ccccc1)(Oc1ccccc1)C(O)c1ccccc1` (stereo not given): the GI50 in [1] is greater than 100 µM; in [2] it was 66.5 µM; in assay [3], greater than 100 µM; in assay [4], greater than 100 µM; in assay [5] it was 33.3 µM; in assay [6] it was greater than 100 µM. The GI50 in assay [7] was 85.7 µM; in assay [8], 53.1 µM; in assay [9], greater than 100 µM; in [10], greater than 100 µM. Further, the TGI in [1], in assay [2], in assay [3], in assay [4], in assay [5] and in [6] was greater than 100 µM throughout. Besides, the TGI in assay [7], in [8], in assay [9] and in [10] was greater than 100 µM in each case.
`COc1cc2c3c(n(CCCO)c(=O)c2cc1OC)-c1cc2c(cc1C3=O)OCO2`: the GI50 in assay [1] is 16.9 µM; in assay [2], 0.465 µM; in assay [3] it was 3.54 µM; in assay [4] it was 0.841 µM; in assay [5], 11.6 µM; in [6], 9.04 µM. The GI50 in assay [7] is greater than 31.2 µM; in assay [8], 11.3 µM; in [9], 14.5 µM; in assay [10] it was 4.75 µM. Further, the TGI in assay [1] was greater than 100 µM; in [2], greater than 19.6 µM; in [3], 14.4 µM; in assay [4], 6.7 µM; in assay [5], greater than 78 µM; in assay [6], greater than 100 µM. Further, the TGI in [7] was greater than 100 µM; in assay [8] it was greater than 52.9 µM; in assay [9], greater than 100 µM; in [10], greater than 100 µM.
For the molecule `COc1cccc(-c2nc(-c3ccc(NS(=O)(=O)c4ccccc4)cc3)[nH]c2-c2ccnc(Br)c2)c1`, the GI50 was 3.11 µM in assay [1]; 1.75 µM in [2]; 3.14 µM in assay [3]; 2.74 µM in assay [4]; 2.49 µM in assay [5]; 3.34 µM in [6]. The GI50 in assay [7] was 2.91 µM; in [8], 1.87 µM; in assay [9], 4.03 µM; in assay [10], 2.83 µM. In addition, the TGI in assay [1] was greater than 100 µM; in assay [2], 5.63 µM; in [3], greater than 100 µM; in assay [4], greater than 100 µM; in [5], 8.31 µM; in assay [6], greater than 100 µM. Further, the TGI was 31 µM in assay [7], 3.49 µM in assay [8], greater than 100 µM in assay [9] and greater than 100 µM in assay [10].
Regarding `O=C(c1ccccc1)c1ccc2cccc(O)c2n1`, the TGI in assay [1] is greater than 100 µM; in assay [2], greater than 100 µM; in [3], 51.8 µM; in assay [4], 70.9 µM; in assay [5], greater than 100 µM; in assay [6], greater than 100 µM. The TGI in assay [7] was greater than 100 µM; in assay [8] it was 75.8 µM; in [9], greater than 100 µM; in [10], 32.4 µM.
For `CCOC(=O)Oc1c(OC)cc(C(=O)c2ccc(OC)c(OC(=O)CCl)c2OC)cc1OC`, the GI50 in assay [1] was 3.39 µM; in assay [2] it was 3.76 µM; in [3] it was 0.662 µM; in assay [4] it was 0.994 µM; in [5], 1.98 µM; in [6], 10.7 µM. In addition, the GI50 in assay [7] was 2.31 µM; in assay [8], 0.475 µM; in [9] it was 0.75 µM; in assay [10], 0.455 µM. Also, the TGI in assay [1], in assay [2], in [3], in [4], in [5] and in assay [6] was greater than 100 µM in each case. The total growth inhibition concentration (TGI) in assay [7] is greater than 100 µM; in assay [8], 14.9 µM; in assay [9], greater than 100 µM; in [10], greater than 100 µM.
As for `Cc1c2[nH]c3ccc(Br)cc3c2c(C)c2[nH]ccc(=O)c12`, the TGI is 25.7 µM in assay [1]; 28 µM in assay [2]; 31.6 µM in [3]; 28 µM in assay [4]; 41.5 µM in [5]; 32.6 µM in assay [6]. In addition, the TGI in [7] was determined as 34.8 µM; in assay [8], 64.2 µM; in assay [9] it was 33.2 µM; in [10] it was 25.5 µM.
Regarding `COc1ccc(/C=C(\C#N)n2nnc3cc(Cl)ccc32)cc1`, the GI50 in [1] was 0.714 µM; in assay [2], 0.461 µM; in assay [3] it was 0.431 µM; in assay [4] it was 1.09 µM; in [5], 0.694 µM; in assay [6], 2 µM. The GI50 in assay [7] was 1.33 µM; in [8] it was 2.36 µM; in assay [9], 1.12 µM; in assay [10], 0.351 µM. Besides, the TGI in assay [1], in [2], in [3], in [4], in assay [5] and in assay [6] was greater than 100 µM throughout. Also, the TGI in [7] is 31.2 µM; in assay [8], 10.6 µM; in assay [9] it was greater than 41.4 µM; in assay [10], greater than 100 µM.
In the case of `COC(=O)[C@H](C)[C@H]1CC[C@@](C)([C@H]2CC3C(C)(C)[C@H]4CCC(C)=C[C@H]4C[C@@]3(C)O2)OO1` (stereo not given in full), the total growth inhibition concentration (TGI) in assay [1] was found to be 23.2 µM; in assay [2] it was 18.2 µM; in [3], 16.3 µM; in assay [4], 25.3 µM; in assay [5], 18.4 µM; in assay [6] it was 25.9 µM. Further, the total growth inhibition concentration (TGI) in assay [7] was 31 µM; in assay [8] it was 17.8 µM; in assay [9], 28.2 µM; in assay [10] it was 27 µM.
For `Cc1ccc(C)c(NC(=O)CC2C(=O)Nc3ccccc3S2(=O)=O)c1` (stereo not given), the TGI in [1], in [2], in assay [3], in [4], in assay [5] and in [6] was greater than 100 µM throughout. In addition, the total growth inhibition concentration (TGI) in assay [7], in assay [8], in assay [9] and in assay [10] was greater than 100 µM in each case.
Consider `NC(=O)c1csc(C2O[C@@H](COP(=O)(O)OP(=O)(O)OC[C@H]3OC(n4cnc5c(N)ncnc54)[C@H](O)[C@@H]3O)[C@H](O)[C@@H]2O)n1` (stereo not given in full), for which the TGI in [1], in assay [2], in assay [3], in assay [4], in assay [5] and in [6] was greater than 100 µM each time. Moreover, the TGI in [7], in assay [8], in assay [9] and in assay [10] was greater than 100 µM in each case.
With `Cc1ccc(C2=[N+]([O-])c3ccccc3C2=O)cc1`, the TGI in assay [1] was greater than 90.7 µM; in assay [2] it was greater than 100 µM; in assay [3] it was 25.9 µM; in assay [4], greater than 70 µM; in [5], greater than 72 µM; in [6], greater than 75.1 µM. The TGI is 22 µM in assay [7], 27.5 µM in assay [8], greater than 77.2 µM in [9] and greater than 55.2 µM in assay [10].
For `COc1ccc(C(=O)c2cc(OC)c(OC)c(OC)c2)cc1/C=C/C(=O)c1ccc(O)cc1`, the GI50 in assay [1] was 18.7 µM; in assay [2], 3.07 µM; in [3], 0.872 µM; in assay [4], 0.841 µM; in [5], 1.56 µM; in [6], 3.98 µM. In addition, the GI50 in assay [7] is 4.75 µM; in assay [8], 1.46 µM; in assay [9] it was 4.42 µM; in assay [10] it was 2.51 µM. In addition, the TGI is greater than 100 µM in assay [1]; 17.3 µM in assay [2]; greater than 100 µM in assay [3]; greater than 100 µM in assay [4]; 82.9 µM in assay [5]; 95.1 µM in assay [6]. Besides, the TGI was 17.5 µM in assay [7], 2.98 µM in [8], 19.7 µM in assay [9] and 10.2 µM in assay [10].
Regarding `OCc1ccc(N(Cc2ccc(F)cc2)C2CCC2)cc1Cl`, the GI50 in assay [1] is 2.04 µM; in assay [2], 0.619 µM; in [3] it was 14.9 µM; in [4], 15.7 µM; in assay [5], 3.03 µM; in assay [6], 18.1 µM. Moreover, the GI50 was 13.5 µM in [7], 9.11 µM in assay [8], 13.8 µM in assay [9] and 0.744 µM in assay [10]. Moreover, the TGI in [1] stood at 17.9 µM; in assay [2], 4.02 µM; in [3] it was 34.6 µM; in assay [4], 36.7 µM; in assay [5], 25.4 µM; in assay [6] it was 33.9 µM. Besides, the TGI was found to be 26.4 µM in assay [7], 21.8 µM in [8], 27.5 µM in assay [9] and 16.8 µM in [10].
